For this assay, the target named is T1, HspB6 (Homo sapiens, UniProt O14558).
T1 construct: recombinant wild type; small oligomers of 55-60 kDa (dimers and tetramers)
T1 sequence (O14558 1-160): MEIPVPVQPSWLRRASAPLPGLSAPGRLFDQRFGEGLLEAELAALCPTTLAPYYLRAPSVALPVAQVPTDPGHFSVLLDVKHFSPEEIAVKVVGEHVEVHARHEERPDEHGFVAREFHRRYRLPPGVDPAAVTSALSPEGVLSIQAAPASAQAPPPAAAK
The assay can be described thus: intrinsic tryptophan fluorescence titration. The class given is binding. The settings on record: read-out: Kdiss.

Experimental findings from publication PMC7139691, “Effect of Arginine on Chaperone-Like Activity of HspB6 and Monomeric 14-3-3ζ” (International Journal of Molecular Sciences, 2020) are described below.

For `N=C(N)NCCC[C@H](N)C(=O)O` [arginine], the Kd worked out at 10 ± 3 mM.
